In general, IC50 refers to the concentration that inhibits the measured activity by half. Broadly, the EC50 is the concentration needed to bring the measured effect to its halfway point.

The record followed here is ChEMBL document CHEMBL4673241, “Cannabitwinol, a Dimeric Phytocannabinoid from Hemp, Cannabis sativa L., Is a Selective Thermo-TRP Modulator” (J Nat Prod, 2020).

Assay type in all cases: cell-based
Assay [1] addresses Transient receptor potential cation channel subfamily M member 8 (Rattus norvegicus, UniProt Q8R455). The assay can be described thus: Antagonist activity at rat TRPM8 expressed in HEK293 cells assessed as inhibition of icilin-induced Ca2+ response preincubated for 5 mins followed by icilin addition by Fluo-4AM dye based fluorescence assay.
Assay [2] has as its target T1, Transient receptor potential cation channel subfamily A member 1 (Rattus norvegicus, UniProt Q6RI86). As to the kind of experiment: Antagonist activity at rat TRPA1 expressed in HEK293 cells assessed as inhibition of allylisothiocyanate-induced Ca2+ response preincubated for 5 mins followed by allylisothiocyanate addition by Fluo-4AM dye based fluorescence assay.
Assay [3] addresses T1, Transient receptor potential cation channel subfamily A member 1. As to the kind of experiment: Agonist activity at rat TRPA1 stably transfected in HEK293 cells assessed as increase in calcium influx in presence of allylisothiocyanate by Fluo-4-AM dye based spectrofluorimetric method.
The target in assay [4] is Transient receptor potential cation channel subfamily A member 1 (Rattus norvegicus) (UniProt Q6RI86). The assay can be described thus: Agonist activity at rat TRPA1 stably transfected in HEK293 cells assessed as increase in calcium influx by Fluo-4-AM dye based spectrofluorimetric method relative to allylisothiocyanate. Particulars: filed as agonist; call rule not given here.
Transient receptor potential cation channel subfamily A member 1 (Rattus norvegicus), sequence (Q6RI86 whole entry): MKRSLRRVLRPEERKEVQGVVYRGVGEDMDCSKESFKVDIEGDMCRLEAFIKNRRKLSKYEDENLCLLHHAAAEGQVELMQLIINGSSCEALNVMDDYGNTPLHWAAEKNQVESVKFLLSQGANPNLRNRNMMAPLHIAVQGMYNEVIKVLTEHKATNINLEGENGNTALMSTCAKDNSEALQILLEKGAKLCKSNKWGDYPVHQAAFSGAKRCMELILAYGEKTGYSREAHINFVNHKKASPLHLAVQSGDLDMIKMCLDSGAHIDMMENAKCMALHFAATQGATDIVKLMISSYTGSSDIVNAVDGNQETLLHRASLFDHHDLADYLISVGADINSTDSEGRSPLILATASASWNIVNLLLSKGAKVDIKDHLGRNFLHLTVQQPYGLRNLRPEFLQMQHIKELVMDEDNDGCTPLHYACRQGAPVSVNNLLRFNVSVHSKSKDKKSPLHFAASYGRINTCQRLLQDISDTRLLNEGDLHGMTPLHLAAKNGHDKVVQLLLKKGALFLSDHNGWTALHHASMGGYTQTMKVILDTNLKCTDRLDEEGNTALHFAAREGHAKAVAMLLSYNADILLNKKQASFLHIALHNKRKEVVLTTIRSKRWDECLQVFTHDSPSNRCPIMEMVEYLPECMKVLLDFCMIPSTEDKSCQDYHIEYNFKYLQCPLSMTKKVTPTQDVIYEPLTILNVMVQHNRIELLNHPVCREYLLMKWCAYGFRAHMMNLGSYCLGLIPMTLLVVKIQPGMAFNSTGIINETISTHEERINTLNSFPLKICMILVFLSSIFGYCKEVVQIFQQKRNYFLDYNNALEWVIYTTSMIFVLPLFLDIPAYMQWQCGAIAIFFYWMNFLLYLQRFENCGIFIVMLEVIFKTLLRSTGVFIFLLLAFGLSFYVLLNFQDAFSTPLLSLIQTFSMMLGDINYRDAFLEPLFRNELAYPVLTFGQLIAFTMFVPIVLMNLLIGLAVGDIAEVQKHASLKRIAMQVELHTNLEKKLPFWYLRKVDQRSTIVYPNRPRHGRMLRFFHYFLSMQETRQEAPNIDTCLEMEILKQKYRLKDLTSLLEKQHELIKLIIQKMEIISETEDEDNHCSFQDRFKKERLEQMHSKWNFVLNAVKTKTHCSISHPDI
In assay [5] the target is T2, Transient receptor potential cation channel subfamily V member 4 (Rattus norvegicus, UniProt Q9ERZ8). As to the kind of experiment: Antagonist activity at rat TRPV4 expressed in HEK293 cells assessed as inhibition of GSK1016790A-induced Ca2+ response preincubated for 5 mins followed by GSK1016790A addition by Fluo-4AM dye based fluorescence assay.
T2 sequence (Q9ERZ8 whole entry): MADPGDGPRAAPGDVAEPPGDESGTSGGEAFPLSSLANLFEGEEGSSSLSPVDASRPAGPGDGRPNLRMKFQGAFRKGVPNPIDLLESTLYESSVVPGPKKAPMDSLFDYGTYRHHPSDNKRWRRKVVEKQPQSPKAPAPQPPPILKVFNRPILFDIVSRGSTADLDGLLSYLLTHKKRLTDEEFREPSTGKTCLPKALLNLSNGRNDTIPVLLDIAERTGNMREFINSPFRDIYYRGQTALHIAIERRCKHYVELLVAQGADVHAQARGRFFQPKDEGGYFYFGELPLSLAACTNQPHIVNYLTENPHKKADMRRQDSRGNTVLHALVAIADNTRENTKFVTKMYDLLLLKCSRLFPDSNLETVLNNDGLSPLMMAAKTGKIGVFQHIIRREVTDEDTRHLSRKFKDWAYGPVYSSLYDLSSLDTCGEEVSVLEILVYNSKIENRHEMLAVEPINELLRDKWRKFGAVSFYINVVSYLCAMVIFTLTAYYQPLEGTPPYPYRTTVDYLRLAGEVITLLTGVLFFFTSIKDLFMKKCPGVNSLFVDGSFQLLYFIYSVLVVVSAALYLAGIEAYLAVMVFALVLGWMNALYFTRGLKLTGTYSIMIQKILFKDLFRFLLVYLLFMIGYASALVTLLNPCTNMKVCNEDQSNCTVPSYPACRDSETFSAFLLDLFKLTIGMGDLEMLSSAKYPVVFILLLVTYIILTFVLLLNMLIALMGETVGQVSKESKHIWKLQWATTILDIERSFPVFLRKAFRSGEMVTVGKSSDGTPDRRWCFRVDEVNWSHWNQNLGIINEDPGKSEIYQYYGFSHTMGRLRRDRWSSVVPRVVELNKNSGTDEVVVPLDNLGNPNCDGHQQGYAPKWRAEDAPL
The target of assay [6] is T2, Transient receptor potential cation channel subfamily V member 4. The assay can be described thus: Agonist activity at rat TRPV4 stably transfected in HEK293 cells assessed as increase in calcium influx in presence of ionomycin by Fluo-4-AM dye based spectrofluorimetric method.
For assay [7], the target named is Transient receptor potential cation channel subfamily V member 4 (Rattus norvegicus) (UniProt Q9ERZ8). As to the kind of experiment: Agonist activity at rat TRPV4 stably transfected in HEK293 cells assessed as increase in calcium influx by Fluo-4-AM dye based spectrofluorimetric method relative to ionomycin.
Transient receptor potential cation channel subfamily V member 4 (Rattus norvegicus), sequence (Q9ERZ8 whole entry): as above
For assay [8], the target named is T3, Heat sensitive channel TRPV3 (Rattus norvegicus, UniProt Q4QYD9).
T3 sequence (Q4QYD9 whole entry): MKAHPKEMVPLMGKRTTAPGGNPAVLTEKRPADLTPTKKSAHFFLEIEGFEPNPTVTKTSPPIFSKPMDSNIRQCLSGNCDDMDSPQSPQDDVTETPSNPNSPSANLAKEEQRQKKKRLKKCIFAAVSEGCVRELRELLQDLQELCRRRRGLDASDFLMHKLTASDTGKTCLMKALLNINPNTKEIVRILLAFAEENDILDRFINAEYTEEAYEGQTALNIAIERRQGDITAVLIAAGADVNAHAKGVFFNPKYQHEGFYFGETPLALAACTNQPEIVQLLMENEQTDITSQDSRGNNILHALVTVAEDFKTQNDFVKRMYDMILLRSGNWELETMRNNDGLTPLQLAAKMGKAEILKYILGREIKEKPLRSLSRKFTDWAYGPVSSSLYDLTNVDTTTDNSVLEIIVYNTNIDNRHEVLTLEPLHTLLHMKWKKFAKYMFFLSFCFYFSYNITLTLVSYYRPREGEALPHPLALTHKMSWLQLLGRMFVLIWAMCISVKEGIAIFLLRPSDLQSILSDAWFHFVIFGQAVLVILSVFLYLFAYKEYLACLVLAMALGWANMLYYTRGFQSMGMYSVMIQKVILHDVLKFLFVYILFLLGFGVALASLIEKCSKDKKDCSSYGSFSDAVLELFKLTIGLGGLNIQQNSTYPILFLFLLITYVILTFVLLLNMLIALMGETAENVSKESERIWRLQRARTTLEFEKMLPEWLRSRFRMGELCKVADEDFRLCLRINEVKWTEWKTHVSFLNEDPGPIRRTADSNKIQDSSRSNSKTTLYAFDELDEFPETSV
As to the kind of experiment: Antagonist activity at rat TRPV3 expressed in HEK293 cells assessed as inhibition of thymol-induced Ca2+ response preincubated for 5 mins followed by thymol addition by Fluo-4AM dye based fluorescence assay.

The target in assay [9] is T3, Heat sensitive channel TRPV3. The assay can be described thus: Agonist activity at rat TRPV3 stably transfected in HEK293 cells assessed as increase in calcium influx in presence of ionomycin by Fluo-4-AM dye based spectrofluorimetric method.
Assay [10] concerns the target T4, Heat sensitive channel TRPV3 (Rattus norvegicus) (UniProt Q4QYD9).
T4 sequence (whole entry): T3 sequence (Q4QYD9 whole entry)
As to the kind of experiment: Agonist activity at rat TRPV3 stably transfected in HEK293 cells assessed as increase in calcium influx by Fluo-4-AM dye based spectrofluorimetric method relative to ionomycin. The conditions noted are these: filed as agonist.

For assay [11], the target named is T5, Transient receptor potential cation channel subfamily V member 2 (Rattus norvegicus, UniProt Q9WUD2).
T5 sequence (Q9WUD2 whole entry): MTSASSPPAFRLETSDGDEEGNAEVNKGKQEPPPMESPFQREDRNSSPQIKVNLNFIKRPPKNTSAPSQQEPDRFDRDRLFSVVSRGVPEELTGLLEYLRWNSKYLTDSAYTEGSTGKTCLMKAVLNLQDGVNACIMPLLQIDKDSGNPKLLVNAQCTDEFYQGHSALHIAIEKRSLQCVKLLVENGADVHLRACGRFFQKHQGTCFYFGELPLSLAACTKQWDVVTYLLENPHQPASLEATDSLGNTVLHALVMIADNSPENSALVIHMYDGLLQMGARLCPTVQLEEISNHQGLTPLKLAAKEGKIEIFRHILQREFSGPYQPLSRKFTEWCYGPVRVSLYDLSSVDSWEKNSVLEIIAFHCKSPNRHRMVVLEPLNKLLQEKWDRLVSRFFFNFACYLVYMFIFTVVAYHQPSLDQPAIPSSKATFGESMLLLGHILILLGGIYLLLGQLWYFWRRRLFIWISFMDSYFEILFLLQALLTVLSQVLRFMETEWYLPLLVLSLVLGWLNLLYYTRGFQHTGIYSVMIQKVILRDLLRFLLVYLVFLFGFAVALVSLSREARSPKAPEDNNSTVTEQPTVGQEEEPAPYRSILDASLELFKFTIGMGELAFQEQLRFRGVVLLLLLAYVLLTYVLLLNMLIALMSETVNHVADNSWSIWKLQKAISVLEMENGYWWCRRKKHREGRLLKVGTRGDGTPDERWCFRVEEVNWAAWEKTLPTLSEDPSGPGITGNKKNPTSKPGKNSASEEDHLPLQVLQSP
The assay can be described thus: Antagonist activity at rat TRPV2 expressed in HEK293 cells assessed as inhibition of LPC-induced Ca2+ response preincubated for 5 mins followed by LPC addition by Fluo-4AM dye based fluorescence assay.

For assay [12], the target named is T5, Transient receptor potential cation channel subfamily V member 2. The assay can be described thus: Agonist activity at rat TRPV2 stably transfected in HEK293 cells assessed as increase in calcium influx in presence of ionomycin by Fluo-4-AM dye based spectrofluorimetric method.
Assay [13] has as its target T6, Transient receptor potential cation channel subfamily V member 2 (Rattus norvegicus) (UniProt Q9WUD2).
T6 sequence (whole entry): T5 sequence (Q9WUD2 whole entry)
The assay can be described thus: Agonist activity at rat TRPV2 stably transfected in HEK293 cells assessed as increase in calcium influx by Fluo-4-AM dye based spectrofluorimetric method relative to ionomycin.

Assay [14] concerns the target T7, Transient receptor potential cation channel subfamily V member 1 (Homo sapiens, UniProt Q8NER1). As to the kind of experiment: Antagonist activity at human TRPV1 expressed in HEK293 cells assessed as inhibition of capsaicin-induced Ca2+ response preincubated for 5 mins followed by capsaicin addition by Fluo-4AM dye based fluorescence assay.
In assay [15] the target is T7, Transient receptor potential cation channel subfamily V member 1. The assay can be described thus: Agonist activity at human TRPV1 stably transfected in HEK293 cells assessed as increase in calcium influx in presence of ionomycin by Fluo-4-AM dye based spectrofluorimetric method.
The target is the same in assay [16]. The assay can be described thus: Agonist activity at human TRPV1 stably transfected in HEK293 cells assessed as increase in calcium influx by Fluo-4-AM dye based spectrofluorimetric method relative to ionomycin.

T7 sequence (Q8NER1 whole entry): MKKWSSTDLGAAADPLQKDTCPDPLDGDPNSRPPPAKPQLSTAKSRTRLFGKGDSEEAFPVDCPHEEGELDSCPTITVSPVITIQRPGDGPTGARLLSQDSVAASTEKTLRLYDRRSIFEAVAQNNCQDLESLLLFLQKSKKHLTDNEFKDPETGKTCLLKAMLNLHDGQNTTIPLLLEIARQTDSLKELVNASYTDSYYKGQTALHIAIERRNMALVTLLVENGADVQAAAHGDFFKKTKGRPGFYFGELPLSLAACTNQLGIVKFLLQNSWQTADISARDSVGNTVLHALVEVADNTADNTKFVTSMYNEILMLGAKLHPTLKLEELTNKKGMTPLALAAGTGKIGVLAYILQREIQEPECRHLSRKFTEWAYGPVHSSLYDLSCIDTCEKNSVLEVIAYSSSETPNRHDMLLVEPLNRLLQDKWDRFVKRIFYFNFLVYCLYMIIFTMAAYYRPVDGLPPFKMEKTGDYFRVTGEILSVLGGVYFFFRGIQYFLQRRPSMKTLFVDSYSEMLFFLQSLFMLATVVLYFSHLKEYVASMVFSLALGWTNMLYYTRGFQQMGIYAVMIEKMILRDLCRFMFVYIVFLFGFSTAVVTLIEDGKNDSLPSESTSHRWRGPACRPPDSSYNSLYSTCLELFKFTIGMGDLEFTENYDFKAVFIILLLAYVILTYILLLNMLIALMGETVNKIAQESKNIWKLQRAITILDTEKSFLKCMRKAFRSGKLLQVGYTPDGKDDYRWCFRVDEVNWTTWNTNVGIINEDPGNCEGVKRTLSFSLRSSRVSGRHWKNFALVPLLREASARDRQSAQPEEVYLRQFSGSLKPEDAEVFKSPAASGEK
T1 sequence (Q6RI86 whole entry): as the sequence (Q6RI86 whole entry) above
Transient receptor potential cation channel subfamily M member 8, sequence (Q8R455 whole entry): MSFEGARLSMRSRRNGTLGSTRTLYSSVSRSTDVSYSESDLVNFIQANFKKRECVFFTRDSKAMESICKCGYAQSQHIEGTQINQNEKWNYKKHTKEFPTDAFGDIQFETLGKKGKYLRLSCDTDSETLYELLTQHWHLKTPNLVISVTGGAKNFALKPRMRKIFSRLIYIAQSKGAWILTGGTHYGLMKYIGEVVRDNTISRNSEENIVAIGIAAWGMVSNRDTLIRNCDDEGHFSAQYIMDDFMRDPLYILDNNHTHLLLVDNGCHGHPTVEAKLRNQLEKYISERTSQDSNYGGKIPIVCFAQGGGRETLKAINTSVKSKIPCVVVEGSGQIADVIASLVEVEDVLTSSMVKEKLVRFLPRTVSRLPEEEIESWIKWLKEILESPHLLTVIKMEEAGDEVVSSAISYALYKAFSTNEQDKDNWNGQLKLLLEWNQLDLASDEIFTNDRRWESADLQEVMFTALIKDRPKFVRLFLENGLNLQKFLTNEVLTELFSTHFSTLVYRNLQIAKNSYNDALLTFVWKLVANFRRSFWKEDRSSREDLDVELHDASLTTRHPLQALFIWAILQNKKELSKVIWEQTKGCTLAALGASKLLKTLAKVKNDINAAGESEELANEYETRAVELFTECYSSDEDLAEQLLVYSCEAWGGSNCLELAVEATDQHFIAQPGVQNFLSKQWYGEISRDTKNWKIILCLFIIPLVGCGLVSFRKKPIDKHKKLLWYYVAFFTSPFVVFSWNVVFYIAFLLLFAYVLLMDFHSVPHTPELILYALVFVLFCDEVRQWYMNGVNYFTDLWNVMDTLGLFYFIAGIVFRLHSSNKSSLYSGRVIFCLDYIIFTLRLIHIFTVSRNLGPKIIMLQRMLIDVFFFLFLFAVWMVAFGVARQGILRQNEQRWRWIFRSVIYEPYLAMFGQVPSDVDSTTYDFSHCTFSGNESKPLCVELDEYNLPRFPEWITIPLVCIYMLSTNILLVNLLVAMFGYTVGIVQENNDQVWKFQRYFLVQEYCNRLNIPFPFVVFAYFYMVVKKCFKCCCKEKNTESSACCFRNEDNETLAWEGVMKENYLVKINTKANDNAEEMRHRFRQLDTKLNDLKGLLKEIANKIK

Take `C=C(C)[C@@H]1CCC(C)=C[C@H]1c1c(O)cc(CCCCC)c(Cc2c(CCCCC)cc(O)c([C@@H]3C=C(C)CC[C@H]3C(=C)C)c2O)c1O`: the IC50 in assay [1] was 3.9 µM; in assay [2], 4900 nM; in assay [5] it was over 20 µM; in assay [8], 11.8 µM; in assay [11], over 20000 nM; in assay [14], over 20 µM. Besides, the EC50 is 3000 nM in [3]; 6.2 µM in assay [6]; 4600 nM in [9]; “Not Active” in assay [12] (hek293); 4.5 µM in assay [15]. The Efficacy in [4] is 96.7%; in assay [7], 10.6%; in assay [10], 66.5%; in assay [13], under 10%; in assay [16], 12.3%.

For the molecule `C=C(C)[C@@H]1CCC(C)=C[C@H]1c1c(O)cc(CCCCC)cc1O` [CANNABIDIOL], the IC50 is 2.8 µM in assay [1]; 450 nM in assay [2]; 5.9 µM in assay [5]; 0.75 µM in assay [8]; 1100 nM in [11]; 3.7 µM in assay [14]. The EC50 was 480 nM in assay [3]; 0.9 µM in assay [6]; 510 nM in [9]; 1200 nM in [12] (read-out: EC50); 4.1 µM in assay [15]. Besides, the Efficacy in assay [4] was found to be 109%; in [7] it was 15.2%; in assay [10], 53.6%; in [13] (filed as agonist), 67.5%; in assay [16] (filed as agonist), 78.4%.
